Experimental data reported in article PMC4839570, “Novel Anthra[1,2-c][1,2,5]Thiadiazole-6,11-Diones as Promising Anticancer Lead Compounds: Biological Evaluation, Characterization & Molecular Targets Determination” (PLoS ONE, 2016).
Read-outs that look alike come from different tables or passages of the source.

Columns and labels:
Type in all cases: cell-based
MDA-MB-435 = test: NCI-60 cytotoxicity screen; settings: for GI50 / CC50: Homo sapiens; for CC50: read-out: LC50 (the source's name)
MDA-MB-231 = test: JFCR-39 cytotoxicity screen; settings: for GI50 / CC50: Homo sapiens; for CC50: read-out: LC50 (the source's name)
NCI-H23 = test: JFCR-39 cytotoxicity screen; settings: for GI50 / CC50: Homo sapiens; for CC50: read-out: LC50 (the source's name)
SK-MEL-28 = test: NCI-60 cytotoxicity screen; settings: for GI50 / CC50: Homo sapiens; for CC50: read-out: LC50 (the source's name)
HCT-15 = test: NCI-60 cytotoxicity screen; settings: for GI50 / CC50: Homo sapiens; for CC50: read-out: LC50 (the source's name)
HBC-5 = test: JFCR-39 cytotoxicity screen; settings: for GI50 / CC50: Homo sapiens; for GI50: HBC5; for CC50: HBC5, read-out: LC50 (the source's name)
OVCAR-5 = test: NCI-60 cytotoxicity screen; settings: for GI50 / CC50: Homo sapiens; for CC50: read-out: LC50 (the source's name)
COLO 205 = test: NCI-60 cytotoxicity screen; settings: for GI50 / CC50: Homo sapiens; for CC50: read-out: LC50 (the source's name)
MKN28 = test: JFCR-39 cytotoxicity screen; settings: for GI50 / CC50: Homo sapiens; for GI50: MKN-28; for CC50: MKN-28, read-out: LC50 (the source's name)
SF-295 = test: NCI-60 cytotoxicity screen; settings: for GI50 / CC50: Homo sapiens; for CC50: read-out: LC50 (the source's name)
NCI-H460 [1] = test: JFCR-39 cytotoxicity screen; settings: for GI50 / CC50: Homo sapiens; for CC50: read-out: LC50 (the source's name)
MKN45 = test: JFCR-39 cytotoxicity screen; settings: for GI50 / CC50: Homo sapiens; for GI50: MKN-45; for CC50: MKN-45, read-out: LC50 (the source's name)
MCF-7 = test: JFCR-39 cytotoxicity screen; settings: for GI50 / CC50: Homo sapiens; for GI50: MCF7; for CC50: MCF7, read-out: LC50 (the source's name)
LOX-IMVI = test: JFCR-39 cytotoxicity screen; settings: for GI50 / CC50: Homo sapiens; for CC50: read-out: LC50 (the source's name)
HT-29 = test: JFCR-39 cytotoxicity screen; settings: for GI50 / CC50: Homo sapiens; for CC50: read-out: LC50 (the source's name)
KM-12 = test: JFCR-39 cytotoxicity screen; settings: for GI50 / CC50: Homo sapiens; for GI50: KM12; for CC50: KM12, read-out: LC50 (the source's name)
SF-268 = test: JFCR-39 cytotoxicity screen; settings: for GI50 / CC50: Homo sapiens; for CC50: read-out: LC50 (the source's name)
OVCAR-8 = test: JFCR-39 cytotoxicity screen; settings: for GI50 / CC50: Homo sapiens; for CC50: read-out: LC50 (the source's name)
SN12C = test: NCI-60 cytotoxicity screen; settings: for GI50 / CC50: Homo sapiens; for CC50: read-out: LC50 (the source's name)
SK-MEL-5 = test: NCI-60 cytotoxicity screen; settings: for GI50 / CC50: Homo sapiens; for CC50: read-out: LC50 (the source's name)
RXF 393 = test: NCI-60 cytotoxicity screen; settings: for GI50 / CC50: Homo sapiens; for CC50: read-out: LC50 (the source's name)
CCRF-CEM = test: NCI-60 cytotoxicity screen; settings: for GI50 / CC50: Homo sapiens; for CC50: read-out: LC50 (the source's name)
NCI-H460 [2] = test: NCI-60 cytotoxicity screen; settings: for GI50 / CC50: Homo sapiens; for CC50: read-out: LC50 (the source's name)
MDA-MB-231/ATCC = test: NCI-60 cytotoxicity screen; settings: for GI50 / CC50: Homo sapiens; for CC50: read-out: LC50 (the source's name)
HL-60(TB) = test: NCI-60 cytotoxicity screen; settings: for GI50 / CC50: Homo sapiens; for CC50: read-out: LC50 (the source's name)
[3] = Fig 7, read-out: mean log10 of the GI50 values (converted)
[4] = COLO205, Fig 7, read-out: mean log10 of the GI50 values (converted)
[5] = RXF393, Fig 7, read-out: mean log10 of the GI50 values (converted)
[6] = NCI-460, five-dose, read-out: GI50
[7] = NCI-H460, Fig 7, read-out: mean log10 of the GI50 values (converted)

## O=C1c2ccccc2C(=O)c2c1ccc1nsnc21 [NSC745885, anthra[1,2-c][1,2,5]thiadiazole-6,11-dione]
MDA-MB-435; [3]
  GI50: 1.91 µM
MDA-MB-435; five-dose, read-out: GI50
  GI50: 1.91 µM
MDA-MB-435; five-dose
  CC50: 5.76 µM
  TGI: 3.31 µM
MDA-MB-231
  TGI: 5.5 µM
  GI50: 1.4 µM
  CC50: 63 µM
NCI-H23
  TGI: 2.9 µM
  GI50: 1.1 µM
  CC50: 8 µM
SK-MEL-28; [3]
  GI50: 4.27 µM
SK-MEL-28; five-dose, read-out: GI50
  GI50: 1.85 µM
SK-MEL-28; five-dose
  CC50: 6.18 µM
  TGI: 3.38 µM
HCT-15; [3]
  GI50: 2.04 µM
HCT-15; five-dose, read-out: GI50
  GI50: 1.71 µM
HCT-15; five-dose
  CC50: 8.12 µM
  TGI: 3.72 µM
HBC-5
  TGI: 3.5 µM
  GI50: 1.9 µM
  CC50: 6.2 µM
OVCAR-5; [3]
  GI50: 2.04 µM
OVCAR-5; five-dose, read-out: GI50
  GI50: 1.91 µM
OVCAR-5; five-dose
  CC50: 8.84 µM
  TGI: 4.11 µM
COLO 205; [4]
  GI50: 5.13 µM
COLO 205; five-dose, read-out: GI50
  GI50: 13.4 µM
COLO 205; five-dose
  CC50: 62.4 µM
  TGI: 28.9 µM
MKN28
  TGI: 4.4 µM
  GI50: 1.8 µM
  CC50: 13 µM
SF-295; [3]
  GI50: 2.4 µM
SF-295; five-dose, read-out: GI50
  GI50: 1.9 µM
SF-295; five-dose
  CC50: 8.56 µM
  TGI: 4.04 µM
NCI-H460 [1]
  TGI: 13.0 µM
  GI50: 3.4 µM
  CC50: 67 µM
MKN45
  TGI: 9.8 µM
  GI50: 3.1 µM
  CC50: 39 µM
MCF-7
  TGI: 3.9 µM
  GI50: 1.9 µM
  CC50: 8.1 µM
LOX-IMVI
  TGI: 4.2 µM
  GI50: 0.86 µM
  CC50: > 100 µM
HT-29
  TGI: 39.0 µM
  GI50: 19 µM
  CC50: 81 µM
KM-12
  TGI: 5.4 µM
  GI50: 2.3 µM
  CC50: 25 µM
SF-268
  TGI: 3.8 µM
  GI50: 2 µM
  CC50: 7.1 µM
OVCAR-8
  TGI: 4.0 µM
  GI50: 1.4 µM
  CC50: 18 µM
SN12C; [3]
  GI50: 1.78 µM
SN12C; five-dose, read-out: GI50
  GI50: 1.33 µM
SN12C; five-dose
  CC50: 7.56 µM
  TGI: 3.17 µM
SK-MEL-5; [3]
  GI50: 1.35 µM
SK-MEL-5; five-dose, read-out: GI50
  GI50: 1.58 µM
SK-MEL-5; five-dose
  CC50: 5.41 µM
  TGI: 2.92 µM
RXF 393; [5]
  GI50: 1.74 µM
RXF 393; five-dose, read-out: GI50
  GI50: 1.75 µM
RXF 393; five-dose
  CC50: 14.6 µM
  TGI: 4.40 µM
CCRF-CEM; [3]
  GI50: 1.55 µM
CCRF-CEM; five-dose, read-out: GI50
  GI50: 1.08 µM
CCRF-CEM; five-dose
  CC50: > 100 µM
  TGI: 4.10 µM
NCI-H460 [2]; [6]
  GI50: 3.27 µM
NCI-H460 [2]; NCI-460, five-dose
  CC50: 47.3 µM
  TGI: 14.3 µM
NCI-H460 [2]; [7]
  GI50: 2.45 µM
MDA-MB-231/ATCC; [3]
  GI50: 2.14 µM
MDA-MB-231/ATCC; five-dose, read-out: GI50
  GI50: 1.75 µM
MDA-MB-231/ATCC; five-dose
  CC50: > 100 µM
  TGI: 5.90 µM
HL-60(TB); [3]
  GI50: 0.589 µM
HL-60(TB); five-dose, read-out: GI50
  GI50: 0.16 µM
HL-60(TB); five-dose
  CC50: 0.99 µM
  TGI: 0.39 µM

## O=C1c2ccccc2C(=O)c2c1cc(Cl)c1nsnc21 [NSC757963]
MDA-MB-435; [3]
  GI50: 1.95 µM
MDA-MB-435; five-dose, read-out: GI50
  GI50: 1.99 µM
MDA-MB-435; five-dose
  CC50: 7.49 µM
  TGI: 3.86 µM
MDA-MB-231
  TGI: 2.9 µM
  GI50: 1.3 µM
  CC50: 6.4 µM
NCI-H23
  TGI: 4.1 µM
  GI50: 1.9 µM
  CC50: 8.7 µM
SK-MEL-28; [3]
  GI50: 5.37 µM
SK-MEL-28; five-dose, read-out: GI50
  GI50: 9.52 µM
SK-MEL-28; five-dose
  CC50: 47 µM
  TGI: 21.5 µM
HCT-15; [3]
  GI50: 6.61 µM
HCT-15; five-dose, read-out: GI50
  GI50: 10.2 µM
HCT-15; five-dose
  CC50: 55.9 µM
  TGI: 23.8 µM
HBC-5
  TGI: 4.1 µM
  GI50: 2.1 µM
  CC50: 8.3 µM
OVCAR-5; [3]
  GI50: 17.4 µM
OVCAR-5; five-dose, read-out: GI50
  GI50: 17.6 µM
OVCAR-5; five-dose
  CC50: 56.8 µM
  TGI: 31.6 µM
COLO 205; [4]
  GI50: 14.1 µM
COLO 205; five-dose, read-out: GI50
  GI50: 16.9 µM
COLO 205; five-dose
  CC50: 57.9 µM
  TGI: 31.2 µM
MKN28
  TGI: 4.4 µM
  GI50: 2.2 µM
  CC50: 8.6 µM
SF-295; [3]
  GI50: 17.4 µM
SF-295; five-dose, read-out: GI50
  GI50: 16.6 µM
SF-295; five-dose
  CC50: 62.9 µM
  TGI: 32.3 µM
NCI-H460 [1]
  TGI: 26.0 µM
  GI50: 10 µM
  CC50: 64 µM
MKN45
  TGI: 5.1 µM
  GI50: 2 µM
  CC50: 17 µM
MCF-7
  TGI: 3.9 µM
  GI50: 1.8 µM
  CC50: 8 µM
LOX-IMVI
  TGI: 4.2 µM
  GI50: 1.9 µM
  CC50: 9.3 µM
HT-29
  TGI: 45.0 µM
  GI50: 21 µM
  CC50: 98 µM
KM-12
  TGI: 8.4 µM
  GI50: 3 µM
  CC50: 36 µM
SF-268
  TGI: 4.0 µM
  GI50: 2 µM
  CC50: 6.5 µM
OVCAR-8
  TGI: 4.8 µM
  GI50: 2.1 µM
  CC50: > 100 µM
SN12C; [3]
  GI50: 2.29 µM
SN12C; five-dose, read-out: GI50
  GI50: 3.27 µM
SN12C; five-dose
  CC50: 36.1 µM
  TGI: 13.1 µM
SK-MEL-5; [3]
  GI50: 6.92 µM
SK-MEL-5; five-dose, read-out: GI50
  GI50: 8.48 µM
SK-MEL-5; five-dose
  CC50: 46.2 µM
  TGI: 21.0 µM
RXF 393; [5]
  GI50: 1.86 µM
RXF 393; five-dose, read-out: GI50
  GI50: 2.17 µM
RXF 393; five-dose
  CC50: 27.1 µM
  TGI: 7.21 µM
CCRF-CEM; [3]
  GI50: 0.389 µM
CCRF-CEM; five-dose, read-out: GI50
  GI50: 0.33 µM
CCRF-CEM; five-dose
  CC50: > 100 µM
  TGI: 2.37 µM
NCI-H460 [2]; [6]
  GI50: 30.2 µM
NCI-H460 [2]; NCI-460, five-dose
  CC50: > 100 µM
  TGI: >100 µM
NCI-H460 [2]; [7]
  GI50: 33.1 µM
MDA-MB-231/ATCC; [3]
  GI50: 1.17 µM
MDA-MB-231/ATCC; five-dose, read-out: GI50
  GI50: 1.32 µM
MDA-MB-231/ATCC; five-dose
  CC50: 8.63 µM
  TGI: 3.37 µM
HL-60(TB); [3]
  GI50: 1.05 µM
HL-60(TB); five-dose, read-out: GI50
  GI50: 0.42 µM
HL-60(TB); five-dose
  CC50: > 100 µM
  TGI: 2.22 µM
